Data published in patent US20240158392A1 (Janssen Biotech, Inc., priority 2021, published 2024).

target: SIK2 (Homo sapiens, UniProt Q9H0K1); test: SIK2 Enzymatic Assay High Version 2 (High ATP); format: biochemical; conditions: enzyme 6 nM, 6 mM ATP and 400 μM HDAC5tide (each 2× final concentration); 30 minutes pre-incubation, 2 hours; ADP-Glo Max luminescence; read-out: SIK2 high ATP IC50 (μM) (Test Example 2)
Procedure, shortened: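 At room temperature, enzyme (6 nM, 2× final) was preincubated with compound for 30 min, then 6 mM ATP and 400 μM HDAC5tide (both 2× final) were added for 2 h. ADP formed was measured by ADP-Glo Max (2 h reagent, 1 h detection) using luminescence.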

SIK2, sequence (Q9H0K1 whole entry, species assumed): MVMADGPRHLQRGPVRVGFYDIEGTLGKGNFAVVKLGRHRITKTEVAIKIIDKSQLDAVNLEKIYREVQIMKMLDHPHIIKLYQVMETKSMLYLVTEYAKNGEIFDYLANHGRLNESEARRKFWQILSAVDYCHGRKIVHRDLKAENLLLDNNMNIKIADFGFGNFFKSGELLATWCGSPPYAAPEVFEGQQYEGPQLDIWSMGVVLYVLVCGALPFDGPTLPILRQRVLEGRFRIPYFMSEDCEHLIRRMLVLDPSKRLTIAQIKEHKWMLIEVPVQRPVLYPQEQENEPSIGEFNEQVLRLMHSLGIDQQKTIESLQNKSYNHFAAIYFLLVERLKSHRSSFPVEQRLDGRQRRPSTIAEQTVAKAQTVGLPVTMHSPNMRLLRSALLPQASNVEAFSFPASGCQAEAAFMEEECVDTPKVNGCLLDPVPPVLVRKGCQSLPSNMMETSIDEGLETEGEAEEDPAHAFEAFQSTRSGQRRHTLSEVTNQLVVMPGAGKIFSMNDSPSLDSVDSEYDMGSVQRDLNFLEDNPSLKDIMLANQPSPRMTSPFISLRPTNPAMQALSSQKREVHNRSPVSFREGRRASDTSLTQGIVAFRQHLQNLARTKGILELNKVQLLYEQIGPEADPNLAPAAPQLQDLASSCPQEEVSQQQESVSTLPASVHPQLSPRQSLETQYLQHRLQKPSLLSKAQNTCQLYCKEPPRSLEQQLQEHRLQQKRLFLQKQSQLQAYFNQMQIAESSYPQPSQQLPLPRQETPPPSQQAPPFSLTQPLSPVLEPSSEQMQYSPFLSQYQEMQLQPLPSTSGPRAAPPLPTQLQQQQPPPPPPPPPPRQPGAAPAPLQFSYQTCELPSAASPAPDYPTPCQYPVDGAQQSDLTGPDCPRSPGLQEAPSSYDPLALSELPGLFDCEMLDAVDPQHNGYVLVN

**Q.** How did the IC50 turn out when `COc1ccnc(Nc2cc3cc(-c4cc(OC(F)F)ncc4OCC(C)(C)C#N)ccn3n2)n1` [Example 698, 3-[[6-(difluoromethoxy)-4-[2-[(4-methoxypyrimidin-2-yl)amino]pyrazolo[1,5-a]pyridin-5-yl]-3-pyridyl]oxy]-2,2-dimethyl-propanenitrile] was run?
**A.** 0.0018 µM

**Q.** With `Cn1cnc(Nc2cc3cc(-c4cc(OC(F)F)ncc4OCC(C)(C)C#N)ccn3n2)n1` [Example 699, 3-[[6-(difluoromethoxy)-4-[2-[(1-methyl-1,2,4-triazol-3-yl)amino]pyrazolo[1,5-a]pyridin-5-yl]-3-pyridyl]oxy]-2,2-dimethyl-propanenitrile] as the compound, how does the IC50 read?
**A.** 0.0111 µM

**Q.** How did the IC50 turn out when `CCNc1nc(Nc2cc3cc(-c4cc(OC(F)F)ncc4OCC(C)(C)C#N)ccn3n2)cc(C(F)(F)F)n1` [Example 700, 3-[[6-(difluoromethoxy)-4-[2-[[2-(ethylamino)-6-(trifluoromethyl)pyrimidin-4-yl]amino]pyrazolo[1,5-a]pyridin-5-yl]-3-pyridyl]oxy]-2,2-dimethyl-propanenitrile] was run?
**A.** 0.00786 µM

**Q.** `Cc1cc(C(=O)NCC(C)(C)O)cc(Nc2cc3cc(-c4cc(OC(F)F)ncc4OCC(C)(C)C#N)ccn3n2)n1` [Example 701, 2-[[5-[5-(2-cyano-2-methyl-propoxy)-2-(difluoromethoxy)-4-pyridyl]pyrazolo[1,5-a]pyridin-2-yl]amino]-N-(2-hydroxy-2-methyl-propyl)-6-methyl-pyridine-4-carboxamide] was tested. Which IC50 did it give?
**A.** 0.0279 µM

**Q.** How did the IC50 turn out when `Cn1nc(Nc2cc3cc(-c4cc(OC(F)F)ncc4OCC(C)(C)C#N)ccn3n2)ccc1=O` [Example 702, 3-[[6-(difluoromethoxy)-4-[2-[(1-methyl-6-oxo-pyridazin-3-yl)amino]pyrazolo[1,5-a]pyridin-5-yl]-3-pyridyl]oxy]-2,2-dimethyl-propanenitrile] was run?
**A.** 0.00317 µM

**Q.** Which IC50 does the source give for `Cc1cc(Nc2cc3cc(-c4cc(OC(F)F)ncc4OCC(C)(C)C#N)ccn3n2)nc(C(C)(C)C)n1` [Example 703, 3-[[4-[2-[(2-tert-butyl-6-methyl-pyrimidin-4-yl)amino]pyrazolo[1,5-a]pyridin-5-yl]-6-(difluoromethoxy)-3-pyridyl]oxy]-2,2-dimethyl-propanenitrile] here?
**A.** 0.0699 µM

**Q.** For `CC(C)(C#N)COc1cnc(OC(F)F)cc1-c1ccn2nc(Nc3cc(N)cnn3)cc2c1` [Example 704, 3-[[4-[2-[(5-aminopyridazin-3-yl)amino]pyrazolo[1,5-a]pyridin-5-yl]-6-(difluoromethoxy)-3-pyridyl]oxy]-2,2-dimethyl-propanenitrile], which IC50 is on record?
**A.** 0.0206 µM

**Q.** Which IC50 does the source give for `CC(C)(C#N)COc1cnc(OC(F)F)cc1-c1ccn2nc(Nc3ccnc(N)n3)cc2c1` [Example 705, 3-[[4-[2-[(2-aminopyrimidin-4-yl)amino]pyrazolo[1,5-a]pyridin-5-yl]-6-(difluoromethoxy)-3-pyridyl]oxy]-2,2-dimethyl-propanenitrile] here?
**A.** 0.0306 µM

**Q.** Which IC50 does the source give for `CC(C)(C#N)COc1cnc(OC(F)F)cc1-c1ccn2nc(Nc3cc4n(n3)CCNC4)cc2c1` [Example 706, 3-[[6-(difluoromethoxy)-4-[2-(4,5,6,7-tetrahydropyrazolo[1,5-a]pyrazin-2-ylamino)pyrazolo[1,5-a]pyridin-5-yl]-3-pyridyl]oxy]-2,2-dimethyl-propanenitrile] here?
**A.** 0.0755 µM

**Q.** How did the IC50 turn out when `CC(C)(C#N)COc1cnc(OC(F)F)cc1-c1ccn2nc(Nc3cnccn3)cc2c1` [Example 707, 3-[[6-(difluoromethoxy)-4-[2-(pyrazin-2-ylamino)pyrazolo[1,5-a]pyridin-5-yl]-3-pyridyl]oxy]-2,2-dimethyl-propanenitrile] was run?
**A.** 0.0056 µM

**Q.** How did the IC50 turn out when `CC(C)(C#N)COc1cnc(OC(F)F)cc1-c1ccn2nc(Nc3cccnn3)cc2c1` [Example 708, 3-[[6-(difluoromethoxy)-4-[2-(pyridazin-3-ylamino)pyrazolo[1,5-a]pyridin-5-yl]-3-pyridyl]oxy]-2,2-dimethyl-propanenitrile] was run?
**A.** 0.00591 µM

**Q.** With `Cc1cnc(Nc2cc3cc(-c4cc(OC(F)F)ncc4OCC(C)(C)C#N)ccn3n2)cn1` [Example 709, 3-[[6-(difluoromethoxy)-4-[2-[(5-methylpyrazin-2-yl)amino]pyrazolo[1,5-a]pyridin-5-yl]-3-pyridyl]oxy]-2,2-dimethyl-propanenitrile] as the compound, how does the IC50 read?
**A.** 0.00302 µM

**Q.** How did the IC50 turn out when `Cc1cc(Nc2cc3cc(-c4cc(OC(F)F)ncc4OCC(C)(C)C#N)ccn3n2)nc(N2CCOCC2)n1` [Example 710, 3-[[6-(difluoromethoxy)-4-[2-[(6-methyl-2-morpholino-pyrimidin-4-yl)amino]pyrazolo[1,5-a]pyridin-5-yl]-3-pyridyl]oxy]-2,2-dimethyl-propanenitrile] was run?
**A.** 0.0094 µM

**Q.** Which IC50 does the source give for `Cc1ccc(Nc2cc3cc(-c4cc(OC(F)F)ncc4OCC(C)(C)C#N)ccn3n2)nn1` [Example 711, 3-[[6-(difluoromethoxy)-4-[2-[(6-methylpyridazin-3-yl)amino]pyrazolo[1,5-a]pyridin-5-yl]-3-pyridyl]oxy]-2,2-dimethyl-propanenitrile] here?
**A.** 0.01 µM

**Q.** Which IC50 does the source give for `CC(C)(C#N)COc1cnc(OC(F)F)cc1-c1ccn2nc(Nc3ccc(C(C)(C)O)nn3)cc2c1` [Example 712, 3-[[6-(difluoromethoxy)-4-[2-[[6-(1-hydroxy-1-methyl-ethyl)pyridazin-3-yl]amino]pyrazolo[1,5-a]pyridin-5-yl]-3-pyridyl]oxy]-2,2-dimethyl-propanenitrile] here?
**A.** 0.00411 µM

**Q.** Which IC50 does the source give for `CC(C)(C#N)COc1cnc(OC(F)F)cc1-c1ccn2nc(Nc3cnc(C(C)(C)O)cn3)cc2c1` [Example 713, 3-[[6-(difluoromethoxy)-4-[2-[[5-(1-hydroxy-1-methyl-ethyl)pyrazin-2-yl]amino]pyrazolo[1,5-a]pyridin-5-yl]-3-pyridyl]oxy]-2,2-dimethyl-propanenitrile] here?
**A.** 0.00746 µM

**Q.** How did the IC50 turn out when `Cn1ccc(Nc2cc3cc(-c4cc(OC(F)F)ncc4OCC(C)(C)C#N)ccn3n2)n1` [Example 714, 3-[[6-(difluoromethoxy)-4-[2-[(1-methylpyrazol-3-yl)amino]pyrazolo[1,5-a]pyridin-5-yl]-3-pyridyl]oxy]-2,2-dimethyl-propanenitrile] was run?
**A.** 0.00617 µM

**Q.** Which IC50 does the source give for `CNC(=O)c1cc(C)nc(Nc2cc3cc(-c4cc(OC(F)F)ncc4OCC(C)(C)C#N)ccn3n2)c1` [Example 715, 2-[[5-[5-(2-cyano-2-methyl-propoxy)-2-(difluoromethoxy)-4-pyridyl]pyrazolo[1,5-a]pyridin-2-yl]amino]-N,6-dimethyl-pyridine-4-carboxamide] here?
**A.** 0.011 µM

**Q.** Which IC50 does the source give for `CC(C)(C#N)COc1cnc(OC(F)F)cc1-c1ccn2nc(Nc3cc4c(cn3)CNCC4)cc2c1` [Example 716, 3-[[6-(difluoromethoxy)-4-[2-(5,6,7,8-tetrahydro-2,7-naphthyridin-3-ylamino)pyrazolo[1,5-a]pyridin-5-yl]-3-pyridyl]oxy]-2,2-dimethyl-propanenitrile] here?
**A.** 0.0118 µM

**Q.** With `Cc1nccc(Nc2cc3cc(-c4cc(OC(F)F)ncc4OCC(C)(C)C#N)ccn3n2)n1` [Example 717, 3-[[6-(difluoromethoxy)-4-[2-[(2-methylpyrimidin-4-yl)amino]pyrazolo[1,5-a]pyridin-5-yl]-3-pyridyl]oxy]-2,2-dimethyl-propanenitrile] as the compound, how does the IC50 read?
**A.** 0.00142 µM

**Q.** For `CC(C)(C#N)COc1cnc(OC(F)F)cc1-c1ccn2nc(Nc3cc4c(cn3)CCNC4)cc2c1` [Example 718, 3-[[6-(difluoromethoxy)-4-[2-(5,6,7,8-tetrahydro-2,6-naphthyridin-3-ylamino)pyrazolo[1,5-a]pyridin-5-yl]-3-pyridyl]oxy]-2,2-dimethyl-propanenitrile], which IC50 is on record?
**A.** 0.0182 µM
